Test results: patent publication US7312248B2, “Control of parasites in animals by the use of novel trifluoromethanesulfonanilide oxime ether derivatives” (Schering-Plough Animal Health Corporation, priority 2004, dated 2007)

Assays:
Type in all cases: in vivo
Haemonchus contortus = Haemonchus contortus larvacidal (larval development) assay; conditions: 144 h, read-out: Haemonchus contortus LD99
Outline: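 Nematode eggs placed on agar containing compound (12 two-fold dilutions, final 0.024–50 μg/ml) and left 6 days to develop to L3. LD99 is the lowest concentration inhibiting development of 99% of larvae, derived from well titre (2^n−1) and top concentration.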

[1] = test system: cat flea (Ctenocephalides felis); experiment: Ctenocephalides felis adulticide assay: dose response (LC50)
Outline: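 Groups of 15 adult cat fleas, 3–7 days post-emergence, were exposed for 24 h at 25° C and 75% humidity to glass flask bases coated with six serial doses in acetone and dried for 24 h. Mortality was scored at 8 and 24 h, and LC50 was the surface-treatment concentration killing 50%.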

[2] = test system: Brown Dog Tick (Rhipicephalus sanguineus); experiment: Rapid screening protocol for topical application on brown dog ticks; conditions: 48 h; Laboratory 2 F data
[3] = test system: Brown Dog Tick (Rhipicephalus sanguineus); experiment: Dose response protocol for topical application on brown dog ticks (LD50); conditions: 24 h mortality

| Compound | IC99 (Haemonchus contortus) | C. felis LC50 ([1]; Laboratory 1 C data) | C. felis LC50 ([1]; Laboratory 2 D data) | R. sanguineus Mortality (%) 48 h [2] | R. sanguineus LD50 [3] |
| --- | --- | --- | --- | --- | --- |
| CC/C(=N\OCc1ccc(C(F)(F)F)cc1)c1cc(Cl)ccc1NS(=O)(=O)C(F)(F)F [Compound 9] | 0.6 µg/mL | 0.1 μg/cm^2 | 0.01 μg/cm^2 | 95% | 2.7 μg/tick |
| CC/C(=N\OCc1ccc(Cl)cc1)c1cc(Cl)ccc1NS(=O)(=O)C(F)(F)F [Compound 11, N-{4-chloro-2-[1-(4-chlorobenzyloxyimino)propyl]phenyl}trifluoromethanesulfonamide] | 0.7 µg/mL | 0.1 μg/cm^2 | 0.01 μg/cm^2 | 97% | 2.5 μg/tick |
